Test results as given in patent US7943340B2, “Fungal dipeptidyl peptidase IV (DPPIV) enzyme for reagent use” (priority 2003, dated 2011).
Where two headings read alike, the source gives them in different places.

Columns and labels:
fuLAP2 = assay type: biochemical, Aspergillus fumigatus; settings: for fuLAP2 hydrolytic activity, percentage of control without inhibitor / fuLAP2 hydrolytic activity, percentage of control without any cation: Leu-MCA substrate
Method: (§1) Inhibitors and metallic cations were pre-incubated with the enzymes for 15 min at 37° C. Then, Leu-AMC at a 5 mM final concentration was added. After further incubation for 60 min, enzyme activity was measured as described above. The inhibitors and their concentrations tested purified LAPs were: 500 μM amastatin (Bachem), 40 μM benzamidine (Sigma), 500 μM bestatin (Bachem), 5 mM/l mM EDTA (Sigma). 100 μM E-64 (L-trans-epoxysuccinyl-leu-4-guanidinobutylamide) (Bachem), 100 μM leupeptin (Sigma), 5 mM/1 mM ortho-phenanthroline (Sigma), 500 μM p-chloromercuribenzoic acid (Sigma), 100 μM pepstatin A (Sigma), 40 μM PMSF (Sigma), 20 μM TLCK (Roche Diagnostics), and 20 μM TPCK (Roche Diagnostics).

[1] = tested on: all the LAPs tested (ruLAP1, ruLAP2, fuLAP1, fuLAP2, pkLAP); assay type: biochemical; settings: Leu-AMC 5 mM; amastatin 500 μM; ortho-phenantroline 1 and 5 mM; others as
Method: as §1

[2] = target: T1, pkLAP (microsomal LAP from porcine kidney) (Sus scrofa, UniProt P15145); experiment: Effect of chemical reagents (inhibitors, metallic cations) on LAP activity with Leu-AMC; assay type: biochemical; settings: for pkLAP hydrolytic activity, percentage of control without any cation / pkLAP hydrolytic activity, percentage of control without inhibitor: Leu-MCA substrate; for effect of divalent cation on pkLAP activity: Leu-AMC substrate
T1 construct: purchased Sigma; host or cells: porcine kidney
T1 sequence (P15145 1-963): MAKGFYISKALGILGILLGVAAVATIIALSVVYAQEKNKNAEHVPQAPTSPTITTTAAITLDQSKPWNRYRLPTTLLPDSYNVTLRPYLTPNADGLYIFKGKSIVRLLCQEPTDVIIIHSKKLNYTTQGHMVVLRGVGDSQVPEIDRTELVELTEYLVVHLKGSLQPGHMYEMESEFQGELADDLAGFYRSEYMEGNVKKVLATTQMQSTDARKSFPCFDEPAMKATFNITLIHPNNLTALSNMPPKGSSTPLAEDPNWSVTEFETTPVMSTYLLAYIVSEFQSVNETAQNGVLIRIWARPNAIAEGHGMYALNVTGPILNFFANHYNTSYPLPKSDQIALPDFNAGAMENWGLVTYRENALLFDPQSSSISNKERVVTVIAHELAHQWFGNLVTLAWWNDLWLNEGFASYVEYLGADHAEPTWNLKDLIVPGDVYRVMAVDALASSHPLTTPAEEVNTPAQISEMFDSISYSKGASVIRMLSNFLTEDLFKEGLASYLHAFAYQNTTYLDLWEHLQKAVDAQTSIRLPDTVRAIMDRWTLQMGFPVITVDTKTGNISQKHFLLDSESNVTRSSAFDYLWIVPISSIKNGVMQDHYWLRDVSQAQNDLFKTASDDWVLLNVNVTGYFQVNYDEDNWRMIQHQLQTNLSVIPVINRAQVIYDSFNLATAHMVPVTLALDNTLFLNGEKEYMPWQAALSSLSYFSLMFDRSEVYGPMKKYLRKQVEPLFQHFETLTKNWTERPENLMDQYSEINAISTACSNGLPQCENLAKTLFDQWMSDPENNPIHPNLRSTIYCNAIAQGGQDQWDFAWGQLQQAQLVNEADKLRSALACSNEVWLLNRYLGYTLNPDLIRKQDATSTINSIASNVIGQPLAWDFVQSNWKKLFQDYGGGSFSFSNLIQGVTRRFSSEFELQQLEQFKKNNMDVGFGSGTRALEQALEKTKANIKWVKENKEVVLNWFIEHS
Method: as §1

fuLAP1 = fuLAP1 (Aspergillus fumigatus, UniProt Q5VJG6); assay type: biochemical; settings: for fuLAP1 hydrolytic activity, percentage of control without any cation / fuLAP1 hydrolytic activity, percentage of control without inhibitor: Leu-MCA substrate
Chain of fuLAP1 (Q5VJG6 15-388, looked up, natural form): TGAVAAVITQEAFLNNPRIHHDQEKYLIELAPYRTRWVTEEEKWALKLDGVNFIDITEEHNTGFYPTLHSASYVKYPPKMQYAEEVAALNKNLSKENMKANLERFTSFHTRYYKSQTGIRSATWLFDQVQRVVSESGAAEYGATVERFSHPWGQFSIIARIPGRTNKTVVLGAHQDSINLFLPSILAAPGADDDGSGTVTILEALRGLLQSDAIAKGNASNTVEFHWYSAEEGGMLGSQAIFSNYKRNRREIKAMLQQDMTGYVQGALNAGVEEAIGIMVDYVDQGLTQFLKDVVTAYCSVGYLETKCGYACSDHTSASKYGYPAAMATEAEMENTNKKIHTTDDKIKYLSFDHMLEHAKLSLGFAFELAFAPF
Method: as §1

ruLAP2 = ruLAP2 (Trichophyton rubrum, UniProt Q5QHG6); assay type: biochemical; settings: for ruLAP2 hydrolytic activity, percentage of control without any cation / ruLAP2 hydrolytic activity, percentage of control without inhibitor: Leu-MCA substrate; for effect of inhibitor on ruLAP2 activity: Leu-AMC 5 mM, inhibitor concentrations
Chain of ruLAP2 (Q5QHG6 22-495): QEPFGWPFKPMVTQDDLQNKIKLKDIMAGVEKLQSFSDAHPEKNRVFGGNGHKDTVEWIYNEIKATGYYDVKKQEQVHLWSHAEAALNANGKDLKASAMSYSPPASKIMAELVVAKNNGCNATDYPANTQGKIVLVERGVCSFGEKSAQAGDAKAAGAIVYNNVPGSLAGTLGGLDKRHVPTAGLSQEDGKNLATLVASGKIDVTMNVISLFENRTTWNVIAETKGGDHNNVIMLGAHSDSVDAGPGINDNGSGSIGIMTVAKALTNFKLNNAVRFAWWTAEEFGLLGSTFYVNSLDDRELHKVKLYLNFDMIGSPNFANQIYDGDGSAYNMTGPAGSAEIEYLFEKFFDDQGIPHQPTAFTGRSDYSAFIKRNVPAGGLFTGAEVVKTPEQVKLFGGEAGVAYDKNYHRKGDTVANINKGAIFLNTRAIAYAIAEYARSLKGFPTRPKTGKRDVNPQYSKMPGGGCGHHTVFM
Method: as §1

ruLAP1 = ruLAP1 (Trichophyton rubrum, UniProt Q5QHG5); assay type: biochemical; settings: for ruLAP1 hydrolytic activity, percentage of control without any cation / ruLAP1 hydrolytic activity, percentage of control without inhibitor: Leu-MCA substrate
Chain of ruLAP1 (Q5QHG5 19-373): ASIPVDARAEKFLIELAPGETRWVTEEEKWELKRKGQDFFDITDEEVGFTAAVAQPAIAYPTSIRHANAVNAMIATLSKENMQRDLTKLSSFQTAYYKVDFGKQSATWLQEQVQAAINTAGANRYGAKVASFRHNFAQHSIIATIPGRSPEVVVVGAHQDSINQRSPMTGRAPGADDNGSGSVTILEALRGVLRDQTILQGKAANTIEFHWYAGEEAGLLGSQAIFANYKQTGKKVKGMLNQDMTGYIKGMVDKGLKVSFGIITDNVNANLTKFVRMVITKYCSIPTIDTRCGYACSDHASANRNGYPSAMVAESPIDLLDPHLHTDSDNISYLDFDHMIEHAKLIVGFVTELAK
Method: as §1

[3] = Leu-AMC 5 mM, inhibitor concentrations
[4] = Leu-AMC 5 mM, inhibitor concentrations, pepstatin 0.1 mM

Structure (SMILES)	pkLAP hydrolytic activity, percentage of control without any cation ([2]; cation salt 0.5 mM) [%]	pkLAP hydrolytic activity, percentage of control without any cation ([2]; cation salt 1 mM) [%]	fuLAP2 hydrolytic activity, percentage of control without any cation (fuLAP2; cation salt 0.5 mM) [%]	fuLAP2 hydrolytic activity, percentage of control without any cation (fuLAP2; cation salt 1 mM) [%]	fuLAP1 hydrolytic activity, percentage of control without any cation (fuLAP1; cation salt 0.5 mM) [%]	fuLAP1 hydrolytic activity, percentage of control without any cation (fuLAP1; cation salt 1 mM) [%]	ruLAP2 hydrolytic activity, percentage of control without any cation (ruLAP2; cation salt 0.5 mM) [%]	ruLAP2 hydrolytic activity, percentage of control without any cation (ruLAP2; cation salt 1 mM) [%]	effect of inhibitor on ruLAP2 activity (ruLAP2)	other results
CC(=O)N[C@@H](CC(C)C)C(=O)N[C@@H](CC(C)C)C(=O)N[C@H](C=O)CCCNC(=N)N [Leupeptin, leupeptin]	–	–	–	–	–	–	–	–	–	fuLAP2 hydrolytic activity, percentage of control without inhibitor (fuLAP2; inhibitor 100 μM): 61%; effect of inhibitor on all the LAPs tested [1]: no clear inhibitory effects
[Ca+2].[Cl-].[Cl-] [CaCl2]	177.4	161.8	110.0	165.4	54.9	43.3	126.6	141.9	–	ruLAP1 hydrolytic activity, percentage of control without any cation (ruLAP1; cation salt 0.5 mM): 151.7%; ruLAP1 hydrolytic activity, percentage of control without any cation (ruLAP1; cation salt 1 mM): 175.6%
[Cl][Ni][Cl] [Ni, NiCl2]	1187.7	1158.7	98.4	149.3	51.7	37.2	130.5	147.9	–	effect of divalent cation on pkLAP activity [2]: highly activated; ruLAP1 hydrolytic activity, percentage of control without any cation (ruLAP1; cation salt 0.5 mM): 74.8%; ruLAP1 hydrolytic activity, percentage of control without any cation (ruLAP1; cation salt 1 mM): 58.1%
CC(C)C[C@H](NC(=O)[C@@H](O)[C@H](N)Cc1ccccc1)C(=O)O [bestatin]	–	–	–	–	–	–	–	–	only partial inhibitory effect	effect of inhibitor on pkLAP activity [2, 3]: inhibited; effect of inhibitor on fuLAP2 activity (fuLAP2; [3]): only partial inhibitory effect; fuLAP2 hydrolytic activity, percentage of control without inhibitor (fuLAP2; inhibitor 500 μM): 88%; effect of inhibitor on fuLAP1 activity (fuLAP1; [4]): inhibited; effect of inhibitor on ruLAP1 activity (ruLAP1; [4]): inhibited
O=C(O)c1cc[c]([Hg][Cl])cc1 [p-chloromercuribenzoate, p-chloromercuribenzoic acid]	–	–	–	–	–	–	–	–	blunted the activity	pkLAP hydrolytic activity, percentage of control without inhibitor ([2]; inhibitor 500 μM): 59%; fuLAP2 hydrolytic activity, percentage of control without inhibitor (fuLAP2; inhibitor 500 μM): 96%; fuLAP1 hydrolytic activity, percentage of control without inhibitor (fuLAP1; inhibitor 500 μM): 90%; ruLAP2 hydrolytic activity, percentage of control without inhibitor (ruLAP2; inhibitor 500 μM): 21%; ruLAP1 hydrolytic activity, percentage of control without inhibitor (ruLAP1; inhibitor 500 μM): 32%
[Ca+2] [Ca^++]	–	–	–	–	–	–	–	–	–	effect of divalent cation on fuLAP2 activity (fuLAP2; Leu-AMC substrate): activated; effect of divalent cation on fuLAP1 activity (fuLAP1; Leu-AMC substrate): inhibited
CC(C)C[C@H](NC(=O)[C@H]1O[C@@H]1C(=O)O)C(=O)NCCCCN=C(N)N (relative stereo) [E64, L-trans-epoxysuccinyl-leu-4-guanidinobutylamide]	–	–	–	–	–	–	–	–	blunted the activity	–
CC(C)C[C@H](NC(=O)[C@H]1O[C@@H]1C(=O)O)C(=O)NCCCCN=C(N)N [E 64]	–	–	–	–	–	–	–	–	–	pkLAP hydrolytic activity, percentage of control without inhibitor ([2]; inhibitor 100 μM): 93%; fuLAP2 hydrolytic activity, percentage of control without inhibitor (fuLAP2; inhibitor 100 μM): 71%; fuLAP1 hydrolytic activity, percentage of control without inhibitor (fuLAP1; inhibitor 100 μM): 190%; ruLAP2 hydrolytic activity, percentage of control without inhibitor (ruLAP2; inhibitor 100 μM): 34%; ruLAP1 hydrolytic activity, percentage of control without inhibitor (ruLAP1; inhibitor 100 μM): 103%
[Cl][Cu][Cl] [Cu^++, CuCl2]	1422.0	1092.4	68.9	73.6	25.8	17.0	50.9	34.7	–	effect of divalent cation on pkLAP activity [2]: highly activated
